Data reported in patent publication US20230339937A1, “CONDENSED RING COMPOUNDS THAT INHIBIT H-PGDS” (SATO PHARMACEUTICAL CO., LTD., priority 2020, published 2023).

What follows are compounds tested against T1, Recombinant human H-PGDS (Homo sapiens, UniProt O60760) (assay: H-PGDS inhibitory activity (prostaglandin D2 production from prostaglandin H2, measured by LC-MS/MS)). Conditions: recombinant human H-PGDS 1.0 nM expressed in E. coli; prostaglandin H2 25 μM; preincubated 15 minutes on ice, reacted on ice for 1 minute; concentration that inhibits prostaglandin D2 production by 50%.
T1 construct: made in house; host or cells: E. coli
Assay type: biochemical
Method: The H-PGDS inhibitory activity of each Example compound was measured according to the method reported by LIN, Jiang. et al. (NO 2007/041634).
Recombinant human H-PGDS (final concentration: 1.0 nM) expressed in E. coli was mixed in an assay buffer containing 20 mM Tris-HCl (pH 8.0), 2 mM magnesium chloride, 2 mM reduced glutathione, and 0.5 mg/mL γ-globulin, and 150 μL of the mixture was dispensed into a 8-strip PCR tube (BM Equipment Co., Ltd.). Test compounds (Example compounds) (16.5 μL) at various concentrations dissolved in DMSO were added and the mixture was preincubated for 15 minutes on ice.
Prostaglandin H2 (final concentration: 25 μM) (Cayman Chemical) was dispensed into another 8-strip PCR tube, and the solvent was dried and solidified using a vacuum concentrator (Thermo Fisher Scientific). To the dried and solidified prostaglandin H2 was added 50 μL of the assay buffer containing H-PGDS and each test compound after the preincubation, and the mixture was reacted on ice for 1 minute. 45 μL of this mixture was added to 45 μL of a stop solution (50 mM aqueous citric acid solution containing iron chloride at a final concentration of 4 mg/mL) to stop the reaction. Then, the reaction solution was deproteinized, added to a 96 square deep well plate (SHONANMARUHACHI STEC Co., Ltd.), and the prostaglandin D2 concentration in the reaction solution was measured by LC-MS/MS. ACQUITY (registered trademark) TQD (Waters) was used as a measuring instrument.
Prostaglandin Da production activity (f) in the group with each test compound when a value obtained by subtracting the amount of production of prostaglandin D2 in the group without enzyme, which is non-specific production of prostaglandin D2, from the amount of production of prostaglandin Da in the group without test compound (DMSO-addition group) in each 8-strip PCR tube is 100% was calculated.

T1 sequence (O60760 whole entry): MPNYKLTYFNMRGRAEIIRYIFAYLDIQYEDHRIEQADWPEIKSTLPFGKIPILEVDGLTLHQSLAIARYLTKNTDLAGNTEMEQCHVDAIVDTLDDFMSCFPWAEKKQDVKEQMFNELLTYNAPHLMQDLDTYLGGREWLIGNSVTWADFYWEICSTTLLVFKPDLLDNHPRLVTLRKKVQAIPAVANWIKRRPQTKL

SMILES | IC50
O=C(NCc1ccc(Cl)cc1)c1ccc(-c2nccc3[nH]ccc23)cc1 [Example 58, N-(4-chlorobenzyl)-4-(1H-pyrrolo[3,2-c]pyridin-4-yl)benzamide] | 0.64 nM
O=C(N[C@H]1CCN(CC(F)(F)F)C1)c1ccc(-c2nccc3occc23)cc1 [Example 199, (S)-4-(furo[3,2-c]pyridin-4-yl)-N-[1-(2,2,2-trifluoroethyl)pyrrolidin-3-yl]benzamide] | 9.7 nM
O=C(NCc1cc[nH]n1)c1ccc(-c2nccc3[nH]ccc23)cc1 [Example 54, N-[(1H-pyrazol-3-yl)methyl]-4-(1H-pyrrolo[3,2-c]pyridin-4-yl)benzamide] | 1.2 nM
CC(C)(O)[C@H]1CC[C@H](NC(=O)c2ccc(-c3nccc4occc34)c(C#N)c2)CC1 [Example 133, 3-cyano-4-(furo[3,2-c]pyridin-4-yl)-N-[trans-4-(2-hydroxypropan-2-yl)cyclohexyl]benzamide] | 16 nM
O=C(N[C@H]1CC[C@H](O)CC1)c1ccc(-c2nccc3occc23)c(F)c1 [Example 325, 3-fluoro-4-(furo[3,2-c]pyridin-4-yl)-N-(trans-4-hydroxycyclohexyl)benzamide] | 2.3 nM
NS(=O)(=O)c1cnc(N2CCC(NC(=O)c3ccc(-c4nccc5occc45)cc3)CC2)nc1 [Example 177, 4-(furo[3,2-c]pyridin-4-yl)-N-[1-(5-sulfamoylpyrimidin-2-yl)piperidin-4-yl]benzamide] | 1.2 nM
O=C(NCC1CCOC1)c1ccc(-c2nccc3[nH]ccc23)cc1 (centres unmarked) [Example 21, 4-(1H-pyrrolo[3,2-c]pyridin-4-yl)-N-[(tetrahydrofuran-3-yl)methyl] benzamide] | 0.82 nM
CC(C)(O)[C@H]1CC[C@H](NC(=O)c2ccc(-c3nccc4occc34)cc2)CC1 [Example 124, 4-(furo[3,2-c]pyridin-4-yl)-N-[trans-4-(2-hydroxypropan-2-yl)cyclohexyl]benzamide] | 1.8 nM
N#Cc1ccnc(N2CCC(NC(=O)c3ccc(-c4nccc5occc45)cc3)CC2)n1 [Example 164, N-[1-(4-cyanopyrimidin-2-yl)piperidin-4-yl]-4-(furo[3,2-c]pyridin-4-yl)benzamide] | 0.78 nM
Cc1cc2occc2c(-c2ccc(C(=O)N[C@H]3CC[C@](C)(O)CC3)cc2)n1 [Example 344, N-(trans-4-hydroxy-4-methylcyclohexyl)-4-(6-methylfuro[3,2-c]pyridin-4-yl)benzamide] | 1.7 nM
O=C(NC1CCN(c2ncccn2)CC1)c1ccc(-c2nccc3[nH]ccc23)cc1 [Example 336, N-[1-(pyrimidin-2-yl)piperidin-4-yl]-4-(1H-pyrrolo[3,2-c]pyridin-4-yl)benzamide] | 0.94 nM
COCCCNC(=O)c1ccc(-c2nccc3[nH]ccc23)cc1 [Example 24, N-(3-methoxypropyl)-4-(1H-pyrrolo[3,2-c]pyridin-4-yl)benzamide] | 0.56 nM
O=C(NCC1CC1)c1ccc(-c2nccc3[nH]ccc23)cc1 [Example 18, N-(cyclopropyl-methyl)-4-(1H-pyrrolo[3,2-c]pyridin-4-yl)benzamide] | 1 nM
O=C(NC1CCC2(CC1)COC2)c1ccc(-c2nccc3occc23)cc1 [Example 284, 4-(furo[3,2-c]pyridin-4-yl)-N-(2-oxaspiro[3.5]nonan-7-yl)benzamide] | 1.7 nM
O=C(NC1CCN(C(=O)C2CC2)CC1)c1ccc(-c2nccc3occc23)c(F)c1 [Example 324, N-[1-(cyclopropanecarbonyl)piperidin-4-yl]-3-fluoro-4-(furo[3,2-c]pyridin-4-yl)benzamide] | 1.3 nM
O=C(NC1CCN(c2cnccn2)CC1)c1ccc(-c2nccc3occc23)cc1 [Example 145, 4-(furo[3,2-c]pyridin-4-yl)-N-[1-(pyrazin-2-yl)piperidin-4-yl]benzamide] | 1.2 nM
CC(C)(O)[C@H]1CC[C@@H](NC(=O)c2ccc(-c3nccc4occc34)cc2)CC1 [Example 354, 4-(furo[3,2-c]pyridin-4-yl)-N-[cis-4-(2-hydroxypropan-2-yl)cyclohexyl]benzamide] | 35 nM

Next, values leading:

IC50 | SMILES
0.94 nM | O=C(N[C@H]1CCN(c2ncc(F)cn2)C1)c1ccc(-c2nccc3occc23)cc1 [Example 194, (S)-N-[1-(5-fluoropyrimidin-2-yl)pyrrolidin-3-yl]-4-(furo[3,2-c]pyridin-4-yl)benzamide]
3.7 nM | CS(=O)(=O)c1cccc(NC(=O)c2ccc(-c3nccc4occc34)cc2)c1 [Example 106, 4-(furo[3,2-c]pyridin-4-yl)-N-[3-(methylsulfonyl)phenyl]benzamide]
3.4 nM | O=C(Nc1cccc(F)c1)c1ccc(-c2nccc3occc23)cc1 [Example 112, N-(3-fluorophenyl)-4-(furo[3,2-c]pyridin-4-yl)benzamide]
2.5 nM | O=C(NC1CN(c2ccccn2)C1)c1ccc(-c2nccc3occc23)cc1 [Example 113, 4-(furo[3,2-c]pyridin-4-yl)-N-[1-(pyridin-2-yl)azetidin-3-yl]benzamide]
4.9 nM | O=C(NCC1COc2ccccc2C1)c1ccc(-c2nccc3occc23)cc1 (centres unmarked) [Example 221, N-(chroman-3-ylmethyl)-4-(furo[3,2-c]pyridin-4-yl)benzamide]
3.3 nM | O=C(NC12CC(O)(C1)C2)c1ccc(-c2nccc3occc23)cc1 [Example 278, 4-(furo[3,2-c]pyridin-4-yl)-N-(3-hydroxybicyclo[1.1.1]pentan-1-yl)benzamide]
2 nM | O=C(NC1CC2CCC(C1)C2O)c1ccc(-c2nccc3occc23)cc1 (centres unmarked) [Example 281, 4-(furo[3,2-c]pyridin-4-yl)-N-(8-hydroxybicyclo[3.2.1]octan-3-yl)benzamide]
3.3 nM | O=C(N[C@H]1CC[C@H](CO)CC1)c1ccc(-c2nccc3occc23)cc1 [Example 120, 4-(furo[3,2-c]pyridin-4-yl)-N-[trans-4-(hydroxymethyl)cyclohexyl]benzamide]
12 nM | O=C(NC1CCCC1)c1ccc(-c2nccc3occc23)cc1 [Example 87, N-cyclopenthyl-4-(furo[3,2-c]pyridin-4-yl)benzamide]
13 nM | O=C(N[C@H]1CCCC[C@@H]1O)c1ccc(-c2nccc3occc23)cc1 (relative stereo) [Example 274, 4-(furo[3,2-c]pyridin-4-yl)-N-(trans-2-hydroxycyclohexyl)benzamide]
1.1 nM | O=C(NC1CCN(c2ccccc2)CC1)c1ccc(-c2nccc3occc23)cc1 [Example 115, 4-(furo[3,2-c]pyridin-4-yl)-N-(1-phenylpiperidin-4-yl)benzamide]
2.6 nM | O=C(N[C@H]1CC[C@H](C(F)F)CC1)c1ccc(-c2nccc3occc23)cc1 [Example 310, N-[trans-4-(difluoromethyl)cyclohexyl]-4-(furo[3,2-c]pyridin-4-yl)benzamide]
0.78 nM | O=C(NC1CCN(c2ncccn2)CC1)c1ccc(-c2nccc3occc23)cc1 [Example 143, 4-(furo[3,2-c]pyridin-4-yl)-N-[1-(pyrimidin-2-yl)piperidin-4-yl]benzamide]
5.2 nM | O=C(N[C@H]1C[C@@H](O)C1)c1ccc(-c2nccc3occc23)cc1 [Example 269, 4-(furo[3,2-c]pyridin-4-yl)-N-(cis-3-hydroxycyclobutyl)benzamide]
5.7 nM | O=C(Nc1ccccc1F)c1ccc(-c2nccc3occc23)cc1 [Example 110, N-(2-fluorophenyl)-4-(furo[3,2-c]pyridin-4-yl)benzamide]
